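GI50 marks 50% less growth. At the TGI there is no net growth.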
Experiments:
Assay in all cases: NCI anticancer screen, dose series, 384-well format
CCRF-CEM leukemia = test system: CCRF-CEM leukemia
IGROV1 ovarian = test system: IGROV1 ovarian
LOX IMVI melanoma = test system: LOX IMVI melanoma
NCI-H322M lung = test system: NCI-H322M lung
SF-539 CNS = test system: SF-539 CNS
T-47D breast = test system: T-47D breast
A498 renal = test system: A498 renal
786-0 renal = test system: 786-0 renal
HL-60(TB) leukemia = test system: HL-60(TB) leukemia
PC-3 prostate = test system: PC-3 prostate
UACC-62 melanoma = test system: UACC-62 melanoma
SK-OV-3 ovarian = test system: SK-OV-3 ovarian
M14 melanoma = test system: M14 melanoma

`Cc1ccc2c(Nc3cccc(Cl)c3F)ncc(NC(=O)c3csc4c(N)ncnc34)c2c1` was tested, and the GI50 (CCRF-CEM leukemia) was 15 µM, the TGI (CCRF-CEM leukemia) was 34.5 µM and the GI50 (IGROV1 ovarian) was 1.6 µM. The TGI (IGROV1 ovarian) was 97.9 µM, the GI50 (LOX IMVI melanoma) was 0.0418 µM and the TGI (LOX IMVI melanoma) was 1.18 µM. The GI50 (NCI-H322M lung) was 17.4 µM, the TGI (NCI-H322M lung) was > 100 µM and the GI50 (SF-539 CNS) was 29.1 µM. The TGI (SF-539 CNS) was > 100 µM, the GI50 (T-47D breast) was 19.5 µM and the TGI (T-47D breast) was > 100 µM. The GI50 (A498 renal) was 3.07 µM, the TGI (A498 renal) was 43 µM and the GI50 (786-0 renal) was 22.2 µM. For the same compound, the TGI (786-0 renal) was > 100 µM, the GI50 (HL-60(TB) leukemia) was 0.0159 µM and the TGI (HL-60(TB) leukemia) was 12.8 µM. The GI50 (PC-3 prostate) was 57.3 µM, the TGI (PC-3 prostate) was > 100 µM and the GI50 (UACC-62 melanoma) was 0.0251 µM. For the same compound, the TGI (UACC-62 melanoma) was 0.209 µM, the GI50 (SK-OV-3 ovarian) was 27 µM and the TGI (SK-OV-3 ovarian) was > 100 µM. For the same compound, the GI50 (M14 melanoma) was 0.0224 µM and the TGI (M14 melanoma) was 0.186 µM.

Source: PubChem BioAssay (NCI)
